How the values were obtained:
[1] = test system: CHEAL (Lambsquarters, Common); experiment: Postemergence herbicidal evaluation; type: in vivo, Chenopodium album; conditions: for CHEAL herbicidal rating / Herbicidal rating CHEAL: postemergence
Outline: (§1)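 First, seedlings were raised for around two weeks. Next, test material in 50/50 acetone/water containing 0.5% TWEEN 20 was sprayed through a nozzle at 40 psi, equivalent to about 0.0156–0.500 kg/ha. Finally, after 4–5 weeks in the greenhouse, plants were rated 0–9.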

ORYSAT (Rice, Tebonnet) = experiment: Preemergence herbicidal evaluation; type: in vivo, Oryza sativa, (L.) Tebonnet; conditions: rated 4-5 weeks after treatment; for ORYSAT rating: preemergence, 0-9 scale
Outline: (§2)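 Each species is sown separately in potting soil over roughly an inch of soil before any emergence. The soil surface then receives an aqueous acetone spray delivering about 0.0156 to 0.500 kg/ha of compound. After four to five weeks, injury is scored from 0 to 9 relative to a control.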

CASOB (Sicklepod) = experiment: Postemergence herbicidal evaluation; type: in vivo, Cassia obtusifolia; conditions: for CASOB herbicidal rating / Herbicidal rating CASOB: postemergence
Outline: as §1

MOOVA (Monochoria) = experiment: Postemergence weed control under flooded paddy conditions; type: in vivo, Monochoria vaginalis; conditions: postemergence weeds
Outline: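 Herbicidal effect is judged by eye on a 0–9 scale versus control, 3–4 weeks after dosing. Dosing is into flood water kept 1.5–3 cm over the soil, at about 0.0313–0.500 kg/ha in aqueous/acetone 50/50 v/v, on 3–5 cm weeds and 1.5–2.5-leaf rice seedlings.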

[2] = test system: CHEAL (Lambsquarters, Common); experiment: Preemergence herbicidal evaluation; type: in vivo, Chenopodium album; conditions: rated 4-5 weeks after treatment; for CHEAL rating: preemergence, 0-9 scale
Outline: as §2

[3] = test system: TRZAWR (Wheat, Winter, cv Riband); experiment: Postemergence herbicidal evaluation; type: in vivo, Triticum aestivum; conditions: for TRZAWR herbicidal rating / Herbicidal rating TRZAWR: postemergence
Outline: as §1

[4] = Rate 0.0313 kg/ha, rated 3 to 4 weeks after treatment
[5] = Rate 0.0625 kg/ha, rated 3 to 4 weeks after treatment
[6] = Rate 0.1250 kg/ha, rated 3 to 4 weeks after treatment
[7] = Rate 0.2500 kg/ha, rated 3 to 4 weeks after treatment
[8] = rate 0.0313 kg/ha, 3-4 weeks after treatment
[9] = rate 0.0625 kg/ha, 3-4 weeks after treatment
[10] = rate 0.1250 kg/ha, 3-4 weeks after treatment
[11] = rate 0.2500 kg/ha, 3-4 weeks after treatment

CCOC(=O)CN1C(=O)C(CC(=O)Nc2ccccc2)SC1=Nc1cc(-n2c(=O)cc(C(F)(F)F)n(C)c2=O)c(F)cc1Cl (stereo not drawn) [Compound 68, Ethyl 2-{{2-chloro-5-[3,6-dihydro-3-methyl-2,6-dioxo-4-(trifluoromethyl)-1(2H)-pyrimidinyl]-4-fluorophenyl}imino}-4-oxo-5-[(phenylcarbamoyl)-methyl]-3-thiazolidineacetate]
CHEAL herbicidal rating ([1]; rate 0.0158 kg/ha): 4.0 | CHEAL herbicidal rating ([1]; rate 0.0315 kg/ha): 7.0 | CHEAL herbicidal rating ([1]; rate 0.0630 kg/ha): 7.0 | Preemergence herbicidal rating ORYSAT (ORYSAT (Rice, Tebonnet); rate 0.0156 kg/ha): 0.0 | Preemergence herbicidal rating ORYSAT (ORYSAT (Rice, Tebonnet); rate 0.0313 kg/ha): 0.0 | Preemergence herbicidal rating ORYSAT (ORYSAT (Rice, Tebonnet); rate 0.0625 kg/ha): 0.0 | Preemergence herbicidal rating ORYSAT (ORYSAT (Rice, Tebonnet); rate 0.1250 kg/ha): 0.0 | Preemergence herbicidal rating ORYSAT (ORYSAT (Rice, Tebonnet); rate 0.2500 kg/ha): 1.0 | CASOB herbicidal rating (CASOB (Sicklepod); rate 0.0158 kg/ha): 1.0 | CASOB herbicidal rating (CASOB (Sicklepod); rate 0.0315 kg/ha): 4.0 | CASOB herbicidal rating (CASOB (Sicklepod); rate 0.0630 kg/ha): 7.0 | Herbicidal rating MOOVA (MOOVA (Monochoria); [4]): 3.0 | Herbicidal rating MOOVA (MOOVA (Monochoria); [5]): 9.0 | Herbicidal rating MOOVA (MOOVA (Monochoria); [6]): 9.0 | Herbicidal rating MOOVA (MOOVA (Monochoria); [7]): 9.0 | Preemergence herbicidal rating CHEAL ([2]; rate 0.0156 kg/ha): 2.0 | Preemergence herbicidal rating CHEAL ([2]; rate 0.0313 kg/ha): 9.0 | Preemergence herbicidal rating CHEAL ([2]; rate 0.0625 kg/ha): 9.0 | Preemergence herbicidal rating CHEAL ([2]; rate 0.1250 kg/ha): 9.0 | Preemergence herbicidal rating CHEAL ([2]; rate 0.2500 kg/ha): 9.0 | TRZAWR herbicidal rating ([3]; rate 0.0158 kg/ha): 3.0 | TRZAWR herbicidal rating ([3]; rate 0.0315 kg/ha): 3.5 | TRZAWR herbicidal rating ([3]; rate 0.0630 kg/ha): 4.0

CCOC(=O)CN1C(=O)C(CC(=O)OC)S/C1=N/c1cc(-n2c(=O)cc(C(F)(F)F)n(C)c2=O)c(F)cc1Cl (stereo not drawn) [Compound 54, 2-{{2-Chloro-5-[3,6-dihydro-3-methyl-2,6-dioxo-4-(trifluoromethyl)-1(2H)-pyrimidinyl]-4-fluorophenyl}imino}-4-oxo-3,5-thiazolidinediacetic acid, 3-ethyl methyl ester]
Postemergence herbicidal rating CHEAL ([1]; Rate 0.0158 kg/ha): 9.0 | Postemergence herbicidal rating CHEAL ([1]; Rate 0.0315 kg/ha): 9.0 | Postemergence herbicidal rating CHEAL ([1]; Rate 0.0630 kg/ha): 9.0 | Preemergence herbicidal rating ORYSAT (ORYSAT (Rice, Tebonnet); rate 0.0156 kg/ha): 0.0 | Preemergence herbicidal rating ORYSAT (ORYSAT (Rice, Tebonnet); rate 0.0313 kg/ha): 0.0 | Preemergence herbicidal rating ORYSAT (ORYSAT (Rice, Tebonnet); rate 0.0625 kg/ha): 1.0 | Preemergence herbicidal rating ORYSAT (ORYSAT (Rice, Tebonnet); rate 0.1250 kg/ha): 2.0 | Preemergence herbicidal rating ORYSAT (ORYSAT (Rice, Tebonnet); rate 0.2500 kg/ha): 4.5 | Preemergence herbicidal rating ORYSAT (ORYSAT (Rice, Tebonnet); rate 0.5000 kg/ha): 6.0 | Postemergence herbicidal rating CASOB (CASOB (Sicklepod); Rate 0.0158 kg/ha): 5.0 | Postemergence herbicidal rating CASOB (CASOB (Sicklepod); Rate 0.0315 kg/ha): 6.0 | Postemergence herbicidal rating CASOB (CASOB (Sicklepod); Rate 0.0630 kg/ha): 9.0 | Herbicidal rating MOOVA (MOOVA (Monochoria); [8]): 0.0 | Herbicidal rating MOOVA (MOOVA (Monochoria); [9]): 0.0 | Herbicidal rating MOOVA (MOOVA (Monochoria); [10]): 6.0 | Herbicidal rating MOOVA (MOOVA (Monochoria); [11]): 6.0 | Preemergence herbicidal rating CHEAL ([2]; rate 0.0156 kg/ha): 4.5 | Preemergence herbicidal rating CHEAL ([2]; rate 0.0313 kg/ha): 9.0 | Preemergence herbicidal rating CHEAL ([2]; rate 0.0625 kg/ha): 9.0 | Preemergence herbicidal rating CHEAL ([2]; rate 0.1250 kg/ha): 9.0 | Preemergence herbicidal rating CHEAL ([2]; rate 0.2500 kg/ha): 9.0 | Preemergence herbicidal rating CHEAL ([2]; rate 0.5000 kg/ha): 9.0 | Postemergence herbicidal rating TRZAWR ([3]; Rate 0.0158 kg/ha): 5.0 | Postemergence herbicidal rating TRZAWR ([3]; Rate 0.0315 kg/ha): 7.0 | Postemergence herbicidal rating TRZAWR ([3]; Rate 0.0630 kg/ha): 9.0

C=CCN1C(=O)C(CC(=O)NS(C)(=O)=O)SC1=Nc1cc(-n2c(=O)cc(C(F)(F)F)n(C)c2=O)c(F)cc1Cl (stereo not drawn) [Compound 96, 3-Allyl-2-{{2-chloro-5-[3,6-dihydro-3-methyl-2,6-dioxo-4-(trifluoromethyl)-1(2H)-pryimidinyl]-4-fluorophenyl}imino}-N-(methylsulfonyl)-4-oxo-5-thiazolidineacetamide]
CHEAL herbicidal rating ([1]; rate 0.0156 kg/ha): 2.0 | CHEAL herbicidal rating ([1]; rate 0.0313 kg/ha): 2.0 | ORYSAT rating (ORYSAT (Rice, Tebonnet); 0.0313 kg/ha): 0.0 | ORYSAT rating (ORYSAT (Rice, Tebonnet); 0.0625 kg/ha): 0.0 | ORYSAT rating (ORYSAT (Rice, Tebonnet); 0.1250 kg/ha): 0.0 | ORYSAT rating (ORYSAT (Rice, Tebonnet); 0.2500 kg/ha): 1.0 | ORYSAT rating (ORYSAT (Rice, Tebonnet); 0.5000 kg/ha): 2.0 | CASOB herbicidal rating (CASOB (Sicklepod); rate 0.0156 kg/ha): 0.0 | CASOB herbicidal rating (CASOB (Sicklepod); rate 0.0313 kg/ha): 0.0 | CASOB herbicidal rating (CASOB (Sicklepod); rate 0.0625 kg/ha): 1.0 | CASOB herbicidal rating (CASOB (Sicklepod); rate 0.1250 kg/ha): 0.0 | Herbicidal rating MOOVA (MOOVA (Monochoria); [4]): 2.0 | Herbicidal rating MOOVA (MOOVA (Monochoria); [5]): 2.0 | Herbicidal rating MOOVA (MOOVA (Monochoria); [6]): 3.0 | Herbicidal rating MOOVA (MOOVA (Monochoria); [7]): 3.0 | CHEAL rating ([2]; 0.0313 kg/ha): 2.0 | CHEAL rating ([2]; 0.0625 kg/ha): 2.0 | CHEAL rating ([2]; 0.1250 kg/ha): 3.0 | CHEAL rating ([2]; 0.2500 kg/ha): 9.0 | CHEAL rating ([2]; 0.5000 kg/ha): 9.0 | TRZAWR herbicidal rating ([3]; rate 0.0156 kg/ha): 2.0 | TRZAWR herbicidal rating ([3]; rate 0.0313 kg/ha): 2.5 | TRZAWR herbicidal rating ([3]; rate 0.0625 kg/ha): 2.5 | TRZAWR herbicidal rating ([3]; rate 0.1250 kg/ha): 3.0

CCOC(=O)CN1C(=O)C(CC(=O)OC(C)C)SC1=Nc1cc(-n2c(=O)cc(C(F)(F)F)n(C)c2=O)c(F)cc1Cl (stereo not drawn) [Compound 55, 2-{{2-Chloro-5-[3,6-dihydro-3-methyl-2,6-dioxo-4-(trifluoromethyl)-1(2H)-pyrimidinyl]-4-fluoro-phenyl}imino}-4-oxo-3,5-thiazolidinediacetic acid, 3-ethyl isopropyl ester]
Postemergence herbicidal rating CHEAL ([1]; Rate 0.0158 kg/ha): 9.0 | Postemergence herbicidal rating CHEAL ([1]; Rate 0.0313 kg/ha): 9.0 | Postemergence herbicidal rating CHEAL ([1]; Rate 0.0625 kg/ha): 9.0 | Postemergence herbicidal rating CHEAL ([1]; Rate 0.1250 kg/ha): 9.0 | Postemergence herbicidal rating CHEAL ([1]; Rate 0.2500 kg/ha): 9.0 | Postemergence herbicidal rating CASOB (CASOB (Sicklepod); Rate 0.0158 kg/ha): 1.0 | Postemergence herbicidal rating CASOB (CASOB (Sicklepod); Rate 0.0313 kg/ha): 7.7 | Postemergence herbicidal rating CASOB (CASOB (Sicklepod); Rate 0.0625 kg/ha): 9.0 | Postemergence herbicidal rating CASOB (CASOB (Sicklepod); Rate 0.1250 kg/ha): 8.0 | Postemergence herbicidal rating CASOB (CASOB (Sicklepod); Rate 0.2500 kg/ha): 9.0 | Herbicidal rating MOOVA (MOOVA (Monochoria); [8]): 9.0 | Herbicidal rating MOOVA (MOOVA (Monochoria); [9]): 9.0 | Herbicidal rating MOOVA (MOOVA (Monochoria); [10]): 9.0 | Herbicidal rating MOOVA (MOOVA (Monochoria); [11]): 9.0 | Postemergence herbicidal rating TRZAWR ([3]; Rate 0.0158 kg/ha): 5.5 | Postemergence herbicidal rating TRZAWR ([3]; Rate 0.0313 kg/ha): 6.8 | Postemergence herbicidal rating TRZAWR ([3]; Rate 0.0625 kg/ha): 7.5 | Postemergence herbicidal rating TRZAWR ([3]; Rate 0.1250 kg/ha): 7.5 | Postemergence herbicidal rating TRZAWR ([3]; Rate 0.2500 kg/ha): 7.5

C=CCN1C(=O)C(CC(=O)NS(=O)(=O)c2ccccc2)SC1=Nc1cc(-n2c(=O)cc(C(F)(F)F)n(C)c2=O)c(F)cc1Cl (stereo not drawn) [Compound 101, 3-Allyl-2-{{2-chloro-5-[3,6-dihydro-3-methyl-2,6-dioxo-4-(trifluoromethyl)-1(2H)-pyrimidinyl]-4-fluorophenyl}imino}-4-oxo-N-(phenylsulfonyl)-5-thiazolidineacetamide]
Herbicidal rating CHEAL ([1]; rate 0.0156 kg/ha): 4.0 | Herbicidal rating CHEAL ([1]; rate 0.0313 kg/ha): 4.0 | Herbicidal rating CHEAL ([1]; rate 0.0625 kg/ha): 4.0 | Herbicidal rating CHEAL ([1]; rate 0.1250 kg/ha): 7.0 | Herbicidal rating CASOB (CASOB (Sicklepod); rate 0.0156 kg/ha): 0.0 | Herbicidal rating CASOB (CASOB (Sicklepod); rate 0.0313 kg/ha): 0.0 | Herbicidal rating CASOB (CASOB (Sicklepod); rate 0.0625 kg/ha): 2.0 | Herbicidal rating CASOB (CASOB (Sicklepod); rate 0.1250 kg/ha): 3.0 | Herbicidal rating MOOVA (MOOVA (Monochoria); [4]): 5.0 | Herbicidal rating MOOVA (MOOVA (Monochoria); [5]): 5.0 | Herbicidal rating MOOVA (MOOVA (Monochoria); [6]): 7.0 | Herbicidal rating MOOVA (MOOVA (Monochoria); [7]): 9.0 | Herbicidal rating MOOVA (MOOVA (Monochoria); Rate 0.5000 kg/ha, rated 3 to 4 weeks after treatment): 9.0 | Herbicidal rating TRZAWR ([3]; rate 0.0156 kg/ha): 3.0 | Herbicidal rating TRZAWR ([3]; rate 0.0313 kg/ha): 3.5 | Herbicidal rating TRZAWR ([3]; rate 0.0625 kg/ha): 4.0 | Herbicidal rating TRZAWR ([3]; rate 0.1250 kg/ha): 5.0

— US20020137929A1, “1 - (3-heterocyclylphenyl) isothiourea, -isourea, -guanidine and -amidine herbicidal agents” (Intellectual Property Department, BASF Aktiengesellschaft, priority 1998, published 2002)
